Test results published in US20210260101A1, “POTENTIATED ANTIBIOTIC COMPOSITIONS AND METHODS OF USE FOR TREATING BACTERIAL INFECTIONS AND BIOFILMS” (priority 2018, published 2021).
Converted amounts (≈) assume the structure as drawn. Like-named read-outs stand apart in the source and are kept apart here.

How the values were obtained:
[1] = test system: clinical isolates OU15, OU19, and OU22; test: Checkerboard assay, isolates OU15, OU19 and OU22 reported together; type: cell-based, Pseudomonas aeruginosa; conditions: for MIC: Pseudomonas aeruginosa; for interaction with BPEI600: isolates OU15, OU19, OU22 (data not shown)
Description: (§1) Cells were grown at 35° C. with shaking. The OD600 (optical density at 600 nm) was monitored and recorded for each sample over 24 hr. Each checkerboard trial was done in triplicate using sterile Greiner CellStar™ flat bottom polystyrene plates, catalog #655180. Each growth curve was done in duplicate.

PA OU19 = test: Checkerboard assay, PA OU19; type: cell-based, Pseudomonas aeruginosa; conditions: Pseudomonas aeruginosa, PA OU19
Description: as §1

PA OU22 = test: Checkerboard assay, PA OU22; type: cell-based, Pseudomonas aeruginosa; conditions: Pseudomonas aeruginosa, PA OU22
Description: as §1

MRSA USA 300 ATCC 1717 = test: Checkerboard MIC assay against MRSA USA300 (Example 1); type: cell-based, Staphylococcus aureus; conditions: MRSA USA300; for MIC: Staphylococcus aureus, agent alone, read-out: MIC of antibiotic only
PA OU15 = test: Checkerboard assay, PA OU15; type: cell-based, Pseudomonas aeruginosa; conditions: Pseudomonas aeruginosa, PA OU15
Description: as §1

[2] = test system: MRSA clinical isolate OU11; test: Clinical laboratory susceptibility (MicroScan), MRSA isolate 11; type: cell-based, S. aureus; conditions: MicroScan PC33 gram positive panel
[3] = test system: S. epidermidis ATCC 12228 (MSSE 12228); test: MIC/potentiation against MSSE 12228; type: cell-based, Staphylococcus epidermidis; conditions: for MIC of antibiotic only: agent alone
[4] = test system: S. epidermidis ATCC 35984 (MRSE 35984); test: MIC/potentiation against MRSE 35984 (Example 1); type: cell-based, Staphylococcus epidermidis; conditions: for MIC of antibiotic only: agent alone
[5] = test system: MRSA clinical isolate OU6; test: Clinical laboratory susceptibility (MicroScan), MRSA isolate 6; type: cell-based, S. aureus; conditions: MicroScan PC33 gram positive panel
MRSA OU11 biofilms = test: MBEC assay (MICCP and MBEC), MRSA OU11; type: cell-based, Staphylococcus aureus
Description: (§2) Bacterial culture was inoculated in an MBEC pronged-inoculator and incubated for 24 hr to allow biofilm formation. […] The change in optical density at 600 nm (Δ OD600) was measured. Minimum inhibitory concentration (MIC) of each drug is determined as the lowest concentration that inhibited cell growth (ΔOD600<0.05). Fractional inhibitory concentration index (FICI) was calculated as: […]
(§3) Synergistic effects are determined using EUCAST guidelines: synergy (FICI≤0.5), additivity (0.5<FICI<1), and indifference (FICI>1). The treated pronged-inoculator was then washed and transferred to a recovery plate with 200 μL MHB/well to sonicate and recover any remaining biofilm bacteria. The recovery plate was then incubated overnight before measuring ΔOD600 to determine MBECs and FICIs of the drugs tested on the biofilms.
(§4) MBEC assays were utilized on MRSA OU6 and MRSA OU11 and a lab strain MRSA ATCC 43300. The MRSA bacteria were used to inoculate a 96-well inoculation plate, where MRSA biofilms were grown on prongs protruding from the plate lid, known as the MBEC inoculator lid and based on the Calgary biofilm device. […] The final step was moving the treated inoculation lid to a third plate (the recovery plate) containing growth-media only and using sonication to dislodge the biofilm and recover cells remaining in the biofilm. In this manner, the synergy of BPEI and ampicillin against MRSA biofilms was evaluated. Standard CLSI (Clinical & Laboratory Standards Institute) guidelines describe a standard MIC assay using 96-well plates inoculated with a standard cell density, usually ˜10^6 CFU/mL. However, the MIC data reported here is non-standard because, rather than inoculation via micropipette transfer from an overnight culture, inoculation of the challenge plate occurs from the biofilm-coated inoculation lid where treatment challenge disrupts the protective biofilm EPS matrix. […] The MBEC is determined from cell growth in the recovery plate and reflects the ability of BPEI600, ampicillin, or its combinations to kill the biofilm remaining attached to the prongs of the inoculation lid. […]

MRSA 43300 biofilms = test: MBEC assay (MICCP and MBEC), MRSA 43300; type: cell-based, Staphylococcus aureus
Description: as §2, §3, §4

MRSA OU6 biofilms = test: MBEC assay (MICCP and MBEC), MRSA OU6; type: cell-based, Staphylococcus aureus
Description: as §2, §3, §4

[6] = read-out: cefepime MIC with 16 μg/mL of BPEI600

`C[C@@H](O)[C@H]1C(=O)N2C(C(=O)O)=C(S[C@@H]3CN[C@H](C(=O)N(C)C)C3)[C@H](C)[C@H]12` [meropenem] was tested, and the MIC ([1]; isolates OU15, OU19, OU22, agent alone (data not shown), read-out: MIC) was 16 to 64 µg/mL and the “interaction with BPEI600” value [1] was “no synergy (no synergy (FICI≥1))”.
In the case of `CO/N=C(\C(=O)N[C@@H]1C(=O)N2C(C(=O)[O-])=C(C[N+]3(C)CCCC3)CS[C@H]12)c1csc(N)n1` [cefepime], the MIC (PA OU19; [6]) is reported as 8 µg/mL, the MIC (PA OU19; agent alone, read-out: MIC) is reported as 64 µg/mL and the MIC (PA OU22; [6]) is reported as 8 µg/mL. For the same compound, the MIC (PA OU22; agent alone, read-out: MIC) was 128 µg/mL, the “MIC with 4 μg/ml (6.75 μM) 600-Da BPEI” value (MRSA USA 300 ATCC 1717) was 1 µg/mL and the MIC (MRSA USA 300 ATCC 1717) was 4 µg/mL. The MIC (PA OU15; [6]) was 0.5 µg/mL and the MIC (PA OU15; agent alone, read-out: MIC) was 32 µg/mL.
`CC(=O)NC[C@H]1CN(c2ccc(N3CCOCC3)c(F)c2)C(=O)O1` [linezolid] was tested, and the MIC [2] was 2 µg/mL (≈ 5.93 µM), the “MIC, antibiotic + 2 μg/ml (3.375 μM) 600-Da BPEI” value (“MIC, antibiotic + 2 μg/ml” below) [3] was 0.25 µg/mL and the “MIC, antibiotic + 4 μg/ml (6.75 μM) 600-Da BPEI” value (shortened to “MIC, antibiotic + 4 μg/ml”) [3] was 0.25 µg/mL. The “MIC of antibiotic only” value [3] was 0.25 µg/mL, the “MIC, antibiotic + 2 μg/ml” value [4] was 0.5 µg/mL and the “MIC, antibiotic + 4 μg/ml” value [4] was 0.25 µg/mL. The “MIC of antibiotic only” value [4] was 1 µg/mL, the MIC [5] was 2 µg/mL (≈ 5.93 µM) and the “MIC with 4 μg/ml (6.75 μM) 600-Da BPEI” value (MRSA USA 300 ATCC 1717) was 0.5 µg/mL. For the same compound, the MIC (MRSA USA 300 ATCC 1717) was 0.5 µg/mL.
In the case of `CC1=C(C(=O)O)N2C(=O)[C@@H](NC(=O)[C@H](N)c3ccccc3)[C@H]2SC1` [cephalexin], the “MIC with 4 μg/ml (6.75 μM) 600-Da BPEI” value (MRSA USA 300 ATCC 1717) is reported as 0.5 µg/mL and the MIC (MRSA USA 300 ATCC 1717) is reported as 2 µg/mL.
`CC1(C)S[C@@H]2[C@H](NC(=O)[C@H](N)c3ccc(O)cc3)C(=O)N2[C@H]1C(=O)O` [amoxicillin] was tested, and the “MIC with 4 μg/ml (6.75 μM) 600-Da BPEI” value (MRSA USA 300 ATCC 1717) was 1 µg/mL and the MIC (MRSA USA 300 ATCC 1717) was 4 µg/mL.
For `CC[C@H]1OC(=O)[C@H](C)[C@@H](O[C@H]2C[C@@](C)(OC)[C@@H](O)[C@H](C)O2)[C@H](C)[C@@H](O[C@@H]2O[C@H](C)C[C@H](N(C)C)[C@H]2O)[C@](C)(O)C[C@@H](C)C(=O)[C@H](C)[C@@H](O)[C@]1(C)O` [Erythromycin], the MIC [2] was > 4 µg/mL, the MIC [5] was > 4 µg/mL and the MIC [1] was 256 µg/mL. The MIC ([1]; read-out: erythromycin MIC in the presence of 16 μg/mL of BPEI600) was 64 µg/mL, the “factor of reduction of erythromycin MIC by BPEI600” value ([1]; data not shown) was 4 and the “interaction with BPEI600” value [1] was “exhibited synergy”.
For Gentamicin, the MIC [2] was ≤ 4 µg/mL and the MIC [5] was ≤ 4 µg/mL.
In the case of `CO/N=C(\C(=O)N[C@@H]1C(=O)N2C(C(=O)O)=CCS[C@H]12)c1csc(N)n1` [ceftizoxime], the “MIC, antibiotic + 32 μg/ml (20 μM) PEG1000BPEI600” value (MRSA USA 300 ATCC 1717) is reported as 8 µg/mL, the “MIC, antibiotic + 64 μg/ml (40 μM) PEG1000BPEI600” value (MRSA USA 300 ATCC 1717) is reported as 0.5 µg/mL and the MIC (MRSA USA 300 ATCC 1717) is reported as 128 µg/mL.
In the case of `C[C@@H](O)[C@H]1C(=O)N2C(C(=O)O)=C(SCCN=CN)C[C@H]12` [imipenem], the “MIC with 4 μg/ml (6.75 μM) 600-Da BPEI” value (MRSA USA 300 ATCC 1717) is reported as 0.03 µg/mL and the MIC (MRSA USA 300 ATCC 1717) is reported as 4 µg/mL.
In the case of `CCC[C@@H]1C[C@@H](C(=O)N[C@@H]([C@H]2O[C@H](SC)[C@H](O)[C@@H](O)[C@H]2O)[C@H](C)Cl)N(C)C1` [Clindamycn], the MIC [2] is reported as > 4 µg/mL and the MIC [5] is reported as > 4 µg/mL.
`CN(C)[C@@H]1C(O)=C(C(N)=O)C(=O)[C@@]2(O)C(O)=C3C(=O)c4c(O)cccc4[C@@](C)(O)[C@H]3C[C@@H]12` [Tetracycline] was tested, and the MIC [2] was ≤ 4 µg/mL and the MIC [5] was ≤ 4 µg/mL.
`CN[C@H](CC(C)C)C(=O)N[C@H]1C(=O)N[C@@H](CC(N)=O)C(=O)N[C@H]2C(=O)N[C@H]3C(=O)N[C@H](C(=O)N[C@H](C(=O)O)c4cc(O)cc(O)c4-c4cc3ccc4O)[C@H](O)c3ccc(c(Cl)c3)Oc3cc2cc(c3O[C@@H]2O[C@H](CO)[C@@H](O)[C@H](O)[C@H]2O[C@H]2C[C@](C)(N)[C@H](O)[C@H](C)O2)Oc2ccc(cc2Cl)[C@H]1O` [vancomycin] was tested, and the MIC [2] was 1 µg/mL (≈ 0.69 µM), the “MIC, antibiotic + 2 μg/ml” value [3] was 1 µg/mL and the “MIC, antibiotic + 4 μg/ml” value [3] was 1 µg/mL. For the same compound, the “MIC of antibiotic only” value [3] was 1 µg/mL, the “MIC, antibiotic + 2 μg/ml” value [4] was 2 µg/mL and the “MIC, antibiotic + 4 μg/ml” value [4] was 0.5 µg/mL. For the same compound, the “MIC of antibiotic only” value [4] was 2 µg/mL and the MIC [5] was 2 µg/mL (≈ 1.38 µM).
With `CCCCCCCCCC(=O)N[C@@H](Cc1c[nH]c2ccccc12)C(=O)N[C@H](CC(N)=O)C(=O)N[C@@H](CC(=O)O)C(=O)N[C@@H]1C(=O)NCC(=O)N[C@@H](CCCN)C(=O)N[C@@H](CC(=O)O)C(=O)N[C@H](C)C(=O)N[C@@H](CC(=O)O)C(=O)NCC(=O)N[C@H](CO)C(=O)N[C@@H]([C@H](C)CC(=O)O)C(=O)N[C@@H](CC(=O)c2ccccc2N)C(=O)O[C@@H]1C` [Daptomycin] the MIC [2] was ≤ 0.5 µg/mL and the MIC [5] was ≤ 0.5 µg/mL.
`CC1(C)S[C@@H]2[C@H](NC(=O)[C@H](N)c3ccccc3)C(=O)N2[C@H]1C(=O)O` [ampicillin] was tested, and the MICCP (MRSA OU11 biofilms; MRSA OU11, challenge plate, agent alone) was 128 µg/mL, the “Ampicillin MBEC + 64 μg/mL BPEI” value (MRSA OU11 biofilms; MRSA OU11 biofilm) was 32 µg/mL and the MBEC (MRSA OU11 biofilms; MRSA OU11 biofilm, agent alone) was >256 µg/mL. For the same compound, the MICCP (MRSA 43300 biofilms; MRSA 43300, challenge plate, agent alone) was 128 µg/mL, the “Ampicillin MBEC + 64 μg/mL BPEI” value (MRSA 43300 biofilms; MRSA 43300 biofilm) was 2 µg/mL and the MBEC (MRSA 43300 biofilms; MRSA 43300 biofilm, agent alone) was >256 µg/mL. The MICCP (MRSA OU6 biofilms; MRSA OU6, challenge plate, agent alone) was 256 µg/mL, the “Ampicillin MBEC + 64 μg/mL BPEI” value (MRSA OU6 biofilms; MRSA OU6 biofilm) was 64 µg/mL and the MBEC (MRSA OU6 biofilms; MRSA OU6 biofilm, agent alone) was >256 µg/mL.
